Test results taken from article PMC3898987 (Bioorganic & Medicinal Chemistry, 2013).
Where a chain is given by its changes, count along the chain named.

Legend:
[1] = target: T1, 5-HT3AB receptor, 5-HT3B subunit F130A (Homo sapiens, UniProt O95264+P46098, F123A); experiment: cell-based
T1 sequence (P46098 24-478): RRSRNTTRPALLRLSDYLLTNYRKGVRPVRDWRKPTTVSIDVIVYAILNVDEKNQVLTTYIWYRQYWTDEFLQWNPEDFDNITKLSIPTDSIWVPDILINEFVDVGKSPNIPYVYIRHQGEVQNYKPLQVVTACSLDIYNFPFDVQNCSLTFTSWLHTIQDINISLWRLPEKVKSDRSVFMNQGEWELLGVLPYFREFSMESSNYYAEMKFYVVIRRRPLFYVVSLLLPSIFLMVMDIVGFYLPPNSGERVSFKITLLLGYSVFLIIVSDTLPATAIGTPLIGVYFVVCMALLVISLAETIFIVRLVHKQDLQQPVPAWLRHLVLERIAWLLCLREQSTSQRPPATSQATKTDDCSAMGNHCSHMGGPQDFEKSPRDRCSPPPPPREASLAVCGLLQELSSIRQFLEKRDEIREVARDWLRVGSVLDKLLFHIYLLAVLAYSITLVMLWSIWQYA
T1 sequence (O95264 22-441 F123A): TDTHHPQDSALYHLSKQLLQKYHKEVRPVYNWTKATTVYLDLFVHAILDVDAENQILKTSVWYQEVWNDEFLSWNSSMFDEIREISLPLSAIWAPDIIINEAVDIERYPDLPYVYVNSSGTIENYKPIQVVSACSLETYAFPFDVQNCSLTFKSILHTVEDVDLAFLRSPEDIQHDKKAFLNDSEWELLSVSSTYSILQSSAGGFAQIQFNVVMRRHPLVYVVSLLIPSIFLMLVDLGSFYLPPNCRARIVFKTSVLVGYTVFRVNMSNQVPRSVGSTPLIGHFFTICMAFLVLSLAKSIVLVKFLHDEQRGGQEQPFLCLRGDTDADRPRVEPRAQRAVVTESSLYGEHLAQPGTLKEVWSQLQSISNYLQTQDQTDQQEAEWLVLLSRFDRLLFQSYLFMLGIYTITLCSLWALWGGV
Description: Human embryonic kidney (HEK) 293 cells were cultured on 90 mm tissue culture plates at 37 °C and 7% CO2 in a humidified atmosphere. They were grown in DMEM:F12 (Dulbecco’s Modified Eagle’s Medium/Nutrient Mix F12 (1:1)) with GlutaMAX I™ containing 10% fetal calf serum and passaged when confluent. […] For FlexStation assays, transfected cells were plated on 96-well plates and incubated 1–2 days before assay.
Fluorometric studies were undertaken using a FlexStation® (Molecular Devices, Sunnyvale, CA, USA) as previously described.[11]
Fluorescence was measured every 2 s for 200 s. […] Concentration–response and inhibition curves were obtained for each mutant, and the fluorescence values were normalized to the maximal response.

[2] = target: T2, 5-HT3AB receptor, 5-HT3B subunit I183A (Homo sapiens, UniProt O95264+P46098, I176A); experiment: radioligand saturation binding, transfected HEK293 membranes; conditions: [3H]-palonosetron saturation, 5-HT3AB with 5-HT3B I183A, 4 °C, 24 h
T2 sequence (P46098 24-478): T1 sequence (P46098 24-478)
T2 sequence (O95264 22-441 I176A): T1 sequence (O95264 22-441 F123A) with A102F, I155A
Description: (§1) Human embryonic kidney (HEK) 293 cells were cultured on 90 mm tissue culture plates at 37 °C and 7% CO2 in a humidified atmosphere. They were grown in DMEM:F12 (Dulbecco’s Modified Eagle’s Medium/Nutrient Mix F12 (1:1)) with GlutaMAX I™ containing 10% fetal calf serum and passaged when confluent. For radioligand binding studies, cells in 90 mm dishes were transfected at 60–70% confluency using polyethyleneimine and incubated for 3–4 days before use. For FlexStation assays, transfected cells were plated on 96-well plates and incubated 1–2 days before assay. […]
(§2) Eight-point binding assays were performed to produce saturation binding curves. […] Radioactive counts were measured using a Beckman LS6000SC liquid scintillation counter (Fullerton, California, USA).
(§3) Data were analyzed by iterative curve fitting using GraphPad Prism v5 (San Diego, CA) according to the following equation: B=Bmax[L]^n/kdn+[L]^n where B is the amount of bound radioligand, Bmax is the maximum specific binding at equilibrium, [L] is the concentration of radioligand, Kd is the equilibrium dissociation constant of the radioligand, and n is the Hill coefficient.

[3] = target: T3, 5-HT3AB receptor, 5-HT3B subunit W90C (Homo sapiens, UniProt O95264+P46098, W83C); experiment: as above; conditions: [3H]-palonosetron saturation, 5-HT3AB with 5-HT3B W90C, 4 °C, 24 h
T3 sequence (P46098 24-478): T1 sequence (P46098 24-478)
T3 sequence (O95264 22-441 W83C): T1 sequence (O95264 22-441 F123A) with W62C, A102F
Description: as §1, §2, §3

5-HT3A receptor F130A = target: T4, 5-HT3A receptor F130A (Homo sapiens, UniProt P46098, F125A); experiment: as above; conditions: [3H]-palonosetron saturation, 5-HT3A F130A, 4 °C, 24 h
T4 sequence (P46098 24-478 F125A): T1 sequence (P46098 24-478) with F102A
Description: as §1, §2, §3

5-HT3A receptor D165A = target: T5, 5-HT3A receptor D165A (Homo sapiens, UniProt P46098, D160A); experiment: cell-based
T5 sequence (P46098 24-478 D160A): T1 sequence (P46098 24-478) with D137A

In the case of O=C1c2cccc3c2[C@H](CCC3)CN1[C@@H]1CN2CCC1CC2 [Palonosetron], the IC50 [1] is reported as 0.84 ± 0.11 nM, the Kd [2] is reported as 0.23 ± 0.12 nM and the Kd [3] is reported as 0.34 ± 0.06 nM. For the same compound, the Kd (5-HT3A receptor F130A) was 0.67 ± 0.12 nM and the IC50 (5-HT3A receptor D165A) was 1.33 ± 0.45 nM.
